Data set [1] has as its system opioid receptors (mu/delta). The data set is described as follows: Opioid receptor ligand selectivity / mixed agonist character.
The subject of data set [2] is rodent test subjects. The data set is described as follows: Respiratory depression in rodents. The conditions noted are these: vs morphine.
Data set [3] has as its system mu opioid receptor. As to the kind of experiment: Agonism at mu opioid receptor.
The test system of data set [4] is rodent test subjects. As to the kind of experiment: Muscle rigidity in rodents. Conditions: vs morphine.
Data set [5] deals with rodent test subjects. The data set is described as follows: Analgesia. The conditions noted are these: for analgesia efficacy: in vivo; for analgesia compared with morphine: rodent test subjects. The format is in vivo.
Data set [6] addresses delta opioid receptor (Mus musculus, UniProt P32300). The data set is described as follows: Agonism at delta opioid receptor.
The test system of data set [7] is rodent test subjects. The data set is described as follows: Proconvulsant activity in rodent tests.
Data set [8] concerns pressure nociception in rats. As to the kind of experiment: Analgesic activity, tail pinch assay in rats (i.v.). The format is in vivo, rat (male Sprague-Dawley CD strain). Conditions: iv, 5 min, rat tail pinch, 5 minutes after injection, read-out: Antinociceptive ED50 (half-maximum effective dose). As to the method:
Analgesic activity was assessed by the tail pinch assay in rats (male Sprague-Dawley CD strain, weight approximately 300 g) after intravenous (i.v.) tail vein injection. A group of 6 to 8 animals was injected i.v. with compound in sterile 5% dextrose solution at a concentration of 1-5 mg/mL. Five minutes after injection, an artery clamp (Fisher Scientific Co., self-closing artery forcep, catalog #08-905) was placed on the tail about one inch from the tip of the tail to induce pressure nociception for a short duration (maximum of 20 seconds). The nociceptive response was judged by any sign of discomfort, such as running, squeaking, or turning around to bite the clamp. The dose-response curve was plotted for each compound.

delta opioid receptor, sequence (P32300 whole entry): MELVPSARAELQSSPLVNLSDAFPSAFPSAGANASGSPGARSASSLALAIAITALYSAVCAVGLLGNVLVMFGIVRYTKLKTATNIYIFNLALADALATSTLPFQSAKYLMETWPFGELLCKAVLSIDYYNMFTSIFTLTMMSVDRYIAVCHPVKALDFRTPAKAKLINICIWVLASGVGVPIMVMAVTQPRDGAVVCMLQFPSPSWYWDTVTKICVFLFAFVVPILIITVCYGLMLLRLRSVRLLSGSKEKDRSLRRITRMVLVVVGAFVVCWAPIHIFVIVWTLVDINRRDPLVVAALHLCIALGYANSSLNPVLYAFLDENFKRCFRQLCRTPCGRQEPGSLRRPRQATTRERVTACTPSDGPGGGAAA

As to `C=CCN1C[C@H](C)N([C@@H](c2cccc(O)c2)c2cccc(C(=O)N(C)c3ccccc3)c2)C[C@H]1C` [Example 9, (+)-3-((αR)-α-((2S,5R)-4-Allyl-2.5dimethyl-1-piperazinyl)-3-hydroxybenzyl)-N-methyl-N-phenylbenzamide], in data set [1], the opioid agonist character result is recorded as “mixed mu/delta opioid agonists” and the “opioid receptor ligand selectivity” value is on record as “highly selective”. For the same compound, the respiratory depression result in data set [2] is “much reduced extent”. Further, the “agonism at mu opioid receptor” value in data set [3] is recorded as “agonism”. Also, the muscle rigidity entry in data set [4] was “much reduced extent”. In data set [5], the analgesia efficacy result was “efficacious in mediating analgesia” and the “analgesia compared with morphine” value was “comparable to mu-analgesic morphine”. In data set [6], the “agonism at delta opioid receptor” value was “agonism”. Further, the proconvulsant activity result in data set [7] was “free of proconvulsant activity”.

In the case of `C=CCN1C[C@H](C)N([C@@H](c2cccc(O)c2)c2cccc(C(=O)N(C)c3ccccc3F)c2)C[C@H]1C` [Example 31, (+)-3-((αR)-α-((2S,5R)-4-Allyl-2,5-dimethyl-1-piperazinyl)-3-hydroxybenzyl)-N-(2-fluorophenyl)-N-methylbenzamide], in data set [1], the opioid agonist character entry is on record as “mixed mu/delta opioid agonists” and the “opioid receptor ligand selectivity” value is “highly selective”. In addition, in data set [2], the respiratory depression result was “much reduced extent”. In addition, the “agonism at mu opioid receptor” value in data set [3] is recorded as “agonism”. For the same compound, the muscle rigidity result in data set [4] is on record as “much reduced extent”. Also, in data set [5], the analgesia efficacy entry is “efficacious in mediating analgesia” and the “analgesia compared with morphine” value is reported as “comparable to mu-analgesic morphine”. Moreover, the “agonism at delta opioid receptor” value in data set [6] is listed as “agonism”. Also, the proconvulsant activity result in data set [7] is “free of proconvulsant activity”.

In general, ED50 refers to the dose that gives a 50% effect, or the effect in half of the subjects. `C=CCN1C[C@H](C)N([C@@H](c2cccc(O)c2)c2cccc(C(=O)N(C)c3cccc(F)c3)c2)C[C@H]1C` [Example 16, (+)-3-((αR)-α-((2S,5R)-4-Allyl-2,5-dimethyl-1-piperazinyl)-3-hydroxybenzyl)-N-(3-fluorophenyl)-N-methylbenzamide]: in data set [1], the opioid agonist character result is “mixed mu/delta opioid agonists” and the “opioid receptor ligand selectivity” value is “highly selective”. In addition, the respiratory depression entry in data set [2] is on record as “much reduced extent”. Besides, the “agonism at mu opioid receptor” value in data set [3] is listed as “agonism”. Besides, the muscle rigidity entry in data set [4] is on record as “much reduced extent”. In data set [5], the analgesia efficacy result was “efficacious in mediating analgesia” and the “analgesia compared with morphine” value was “comparable to mu-analgesic morphine”. In data set [6], the “agonism at delta opioid receptor” value is “agonism”. Also, in data set [8], the ED50 was 0.03 mg/kg. Besides, the proconvulsant activity result in data set [7] is listed as “free of proconvulsant activity”.

In the case of `C=CCN1C[C@H](C)N([C@@H](c2cccc(O)c2)c2cccc(C(=O)N(CC)c3ccccc3)c2)C[C@H]1C` [Example 12, (+)-3-((αR)-α-((2S,5R)-4-Allyl-2,5-dimethyl-1-piperazinyl)-3-hydroxybenzyl)-N-ethyl-N-phenylbenzamide], in data set [1], the opioid agonist character entry was “mixed mu/delta opioid agonists” and the “opioid receptor ligand selectivity” value is “highly selective”. Also, the respiratory depression result in data set [2] is “much reduced extent”. The “agonism at mu opioid receptor” value in data set [3] is “agonism”. Further, the muscle rigidity result in data set [4] is on record as “much reduced extent”. In addition, in data set [5], the analgesia efficacy result is “efficacious in mediating analgesia” and the “analgesia compared with morphine” value was “comparable to mu-analgesic morphine”. In addition, in data set [6], the “agonism at delta opioid receptor” value is “agonism”. In addition, the proconvulsant activity entry in data set [7] is “free of proconvulsant activity”.

For the compound `C=CCN1C[C@H](C)N([C@@H](c2cccc(O)c2)c2cccc(C(=O)N(C)c3ccc(F)cc3)c2)C[C@H]1C` [Example 10, (+)-3-((αR)-α-((2S,5R)-4-Allyl-2,5-dimethyl-1-piperazinyl)-3-hydroxybenzyl)-N-(4-fluorophenyl)-N-methylbenzamide], in data set [1], the opioid agonist character entry is “mixed mu/delta opioid agonists” and the “opioid receptor ligand selectivity” value is recorded as “highly selective”. In data set [2], the respiratory depression entry is recorded as “much reduced extent”. Further, the “agonism at mu opioid receptor” value in data set [3] was “agonism”. Besides, in data set [4], the muscle rigidity entry is “much reduced extent”. In data set [5], the analgesia efficacy result is on record as “efficacious in mediating analgesia” and the “analgesia compared with morphine” value was “comparable to mu-analgesic morphine”. In addition, the “agonism at delta opioid receptor” value in data set [6] is “agonism”. Besides, in data set [7], the proconvulsant activity entry is listed as “free of proconvulsant activity”.

For `C=CCN1C[C@H](C)N([C@@H](c2cccc(O)c2)c2cccc(C(=O)N(CC)CC)c2)C[C@H]1C` [Example 1, (+)-3-((αR)-α-((2S,5R)-4-Allyl-2,5-dimethyl-1-piperazinyl)-3-hydroxybenzyl)-N,N-diethylbenzamide], in data set [1], the opioid agonist character result is listed as “mixed mu/delta opioid agonists” and the “opioid receptor ligand selectivity” value was “highly selective”. The respiratory depression result in data set [2] is on record as “much reduced extent”. In data set [3], the “agonism at mu opioid receptor” value was “agonism”. Also, in data set [4], the muscle rigidity entry is “much reduced extent”. Moreover, in data set [5], the analgesia efficacy entry was “efficacious in mediating analgesia” and the “analgesia compared with morphine” value is “comparable to mu-analgesic morphine”. Also, the “agonism at delta opioid receptor” value in data set [6] is “agonism”. The ED50 in data set [8] is 0.35 mg/kg. In data set [7], the proconvulsant activity result is “free of proconvulsant activity”.

As for `C=CCN1C[C@H](C)N([C@@H](c2cccc(O)c2)c2cccc(C(=O)N(CC)c3ccc(F)cc3)c2)C[C@H]1C` [Example 28, (+)-3-((αR)-α-((2S,5R)-4-Allyl-2,5-dimethyl-1-piperazinyl)-3-hydroxybenzyl)-N-ethyl-N-(4-fluorophenyl)benzamide], in data set [1], the opioid agonist character result is recorded as “mixed mu/delta opioid agonists” and the “opioid receptor ligand selectivity” value is on record as “highly selective”. Further, the respiratory depression result in data set [2] was “much reduced extent”. Further, the “agonism at mu opioid receptor” value in data set [3] is recorded as “agonism”. The muscle rigidity entry in data set [4] was “much reduced extent”. Further, in data set [5], the analgesia efficacy entry is “efficacious in mediating analgesia” and the “analgesia compared with morphine” value is “comparable to mu-analgesic morphine”. For the same compound, in data set [6], the “agonism at delta opioid receptor” value is “agonism”. For the same compound, in data set [8], the ED50 was 0.03 mg/kg. Further, the proconvulsant activity entry in data set [7] is “free of proconvulsant activity”.

Consider `C=CCN1C[C@H](C)N([C@@H](c2cccc(O)c2)c2cccc(C(=O)N(C)c3ccc(OC)cc3)c2)C[C@H]1C` [Example 30, (+)-3-((αR)-α-((2S,5R)-4-Allyl-2.5-dimethyl-1-piperazinyl)-3-hydroxybenzyl)-N-(4-methoxyphenyl)-N-methylbenzamide], for which, in data set [1], the opioid agonist character entry is listed as “mixed mu/delta opioid agonists” and the “opioid receptor ligand selectivity” value is listed as “highly selective”. The respiratory depression entry in data set [2] is reported as “much reduced extent”. In data set [3], the “agonism at mu opioid receptor” value is “agonism”. Moreover, the muscle rigidity result in data set [4] is on record as “much reduced extent”. Further, in data set [5], the analgesia efficacy result is given as “efficacious in mediating analgesia” and the “analgesia compared with morphine” value is recorded as “comparable to mu-analgesic morphine”. In data set [6], the “agonism at delta opioid receptor” value is “agonism”. Further, in data set [7], the proconvulsant activity result is “free of proconvulsant activity”.

Consider `C=CCN1C[C@H](C)N([C@@H](c2cccc(O)c2)c2cccc(C(=O)N(CCC)c3ccccc3)c2)C[C@H]1C` [Example 27, (+)-3-((αR)-α-((2S,5R)-4-Allyl-2.5-dimethyl-1-piperazinyl)-3-hydroxybenzyl)-N-phenyl-N-propylbenzamide], for which, in data set [1], the opioid agonist character entry is “mixed mu/delta opioid agonists” and the “opioid receptor ligand selectivity” value is on record as “highly selective”. Moreover, the respiratory depression result in data set [2] is reported as “much reduced extent”. In data set [3], the “agonism at mu opioid receptor” value is “agonism”. Moreover, the muscle rigidity result in data set [4] is “much reduced extent”. Moreover, in data set [5], the analgesia efficacy result is “efficacious in mediating analgesia” and the “analgesia compared with morphine” value is “comparable to mu-analgesic morphine”. Besides, the “agonism at delta opioid receptor” value in data set [6] is “agonism”. Besides, the 50% effective dose (ED50) in data set [8] is 0.04 mg/kg. The proconvulsant activity entry in data set [7] is “free of proconvulsant activity”.

Values taken from patent US5552404A, “Opioid compounds and methods for using same” (Delta Pharmaceuticals, Inc., priority 1995, dated 1996).
